Results taken from ChEMBL document CHEMBL4613224, “Synthesis, in-vitro antiprotozoal activity and molecular docking study of isothiocyanate derivatives” (Bioorg Med Chem, 2020).
Calls of active or inactive are those of the source. No cut-off for these calls is given here.

Experiments:
Plasmodium falciparum = assay: Antiplasmodial activity against Plasmodium falciparum NF54 measured after 24 hrs in presence of [3H] hypoxanthine by liquid scintillation counter analysis; format: functional, organism-based
L6 = assay: Cytotoxicity against rat L6 cells assessed as reduction in cell viability measured after 72 hrs by Alamar blue based inverted microscopy analysis; conditions: L6, 72 h
Leishmania donovani [1] = assay: Antileishmanial activity against Leishmania donovani MHOM-ET-67/L82 axenic amastigotes assessed as parasite growth inhibition measured after 72 hrs by Alamar blue based inverted microscopy analysis; format: functional, organism-based; conditions: MHOM-ET-67/L82, 72 h
Trypanosoma cruzi = assay: Antitrypanosomal activity against Trypanosoma cruzi Tulahuen C4 trypomastigotes infected in rat L6 cells assessed as parasite growth inhibition at 2 ug/ml measured after 96 hrs by inverted microscopy analysis relative to control; format: functional
[2] = Selectivity index, ratio of IC50 for rat L6 cells assessed as reduction in cell viability measured after 72 hrs by Alamar blue based inverted microscopy analysis to IC50 for bloodstream Trypanosoma brucei rhodesiense STIB900 assessed as parasite growth inhibition measured after 70 hrs by Alamar blue assay; format: toxicity; conditions: read-out: Ratio IC50
[3] = Selectivity index, ratio of IC50 for rat L6 cells assessed as reduction in cell viability measured after 72 hrs by Alamar blue based inverted microscopy analysis to IC50 for Leishmania donovani MHOM-ET-67/L82 axenic amastigotes assessed as parasite growth inhibition measured after 72 hrs by Alamar blue based inverted microscopy analysis; format: toxicity; conditions: for selectivity ratio at 72 h: L6 cells, read-out: Ratio IC50
[4] = tested on: Trypanosoma brucei rhodesiense; assay: Antitrypanosomal activity against bloodstream Trypanosoma brucei rhodesiense STIB900 assessed as parasite growth inhibition at 2 ug/ml measured after 70 hrs by Alamar blue assay relative to control; format: functional; conditions: for inhibition at 2 µg/mL: STIB900, 70 h
[5] = Selectivity index, ratio of IC50 for rat L6 cells assessed as reduction in cell viability measured after 72 hrs by Alamar blue based inverted microscopy analysis to IC50 for Plasmodium falciparum NF54 measured after 24 hrs in presence of [3H] hypoxanthine by liquid scintillation counter analysis; format: toxicity; conditions: read-out: Ratio IC50
[6] = tested on: Trypanosoma brucei rhodesiense; assay: Antitrypanosomal activity against bloodstream Trypanosoma brucei rhodesiense STIB900 assessed as parasite growth inhibition measured after 70 hrs by Alamar blue assay; format: functional, organism-based; conditions: STIB900, 70 h
Leishmania donovani [7] = assay: Antileishmanial activity against Leishmania donovani MHOM-ET-67/L82 axenic amastigotes assessed as parasite growth inhibition at 2 to 10 ug/ml measured after 72 hrs by Alamar blue based inverted microscopy analysis relative to control; format: functional

Compound | IC50 (Plasmodium falciparum) [µM] | IC50 (L6; read-out: IC50) [µM] | IC50 (Leishmania donovani [1]) [µM] | inhibition (Trypanosoma cruzi) | selectivity ratio at 72 h [2] | selectivity ratio at 72 h [3] | inhibition at 2 µg/mL [4] [%] | selectivity ratio at 72 h [5] | IC50 [6] [µM] | inhibition (INH) (Leishmania donovani [7]) [%] | inhibition (Leishmania donovani [7]) | IC50 (L6) [µM] | inhibition [4] | Ratio IC50 ([3]; 72 h)
C[C@@H](CCCN=C=S)[C@H]1CC[C@H]2[C@@H]3[C@H](O)C[C@@H]4C[C@H](O)CC[C@]4(C)[C@H]3CC[C@]12C | 4.9 | 5.4 | 1.5 | inactive | 1.2 | 3.6 | > 50 | 1.1 | 4.5 | >90 |  |  |  | 
COc1ccc(N=C=S)cc1OC |  |  |  | inactive |  |  | 50 |  |  |  | inactive |  |  | 
COc1ccc2c(c1OC)CO[C@@H]2[C@H]1c2c(cc3c(c2OC)OCO3)CCN1C(CN=C=S)c1ccc(C)cc1 (some centres not stated) | 1.1 | 1.5 | 0.8 | inactive | 0.5 | 1.7 | > 50 | 1.4 | 3.1 | >90 |  |  |  | 
COc1cc([C@@H]2c3cc4c(cc3[C@H](O)[C@H]3COC(=O)[C@H]23)OCO4)cc(OC)c1OC [PODOFILOX] |  |  |  |  |  |  |  |  |  |  |  | 0.012 |  | 
COc1ccc2c(c1OC)CO[C@@H]2[C@H]1c2c(cc3c(c2OC)OCO3)CCN1C(CN)c1ccc2c(c1)Cc1ccccc1-2 (some centres not stated) | 1.8 | 19.6 |  |  | 5.6 |  | > 50 | 11.2 | 3.5 |  |  |  |  | 
S=C=NCCc1c[nH]c2ccccc12 | 10.3 | 7.1 | 1.7 | inactive | 1.8 | 4.2 | > 50 | 0.7 | 4 | >90 |  |  |  | 
C[C@@H](CCC(N)=O)[C@H]1CC[C@H]2[C@@H]3CC[C@@H]4C[C@H](O)CC[C@]4(C)[C@H]3C[C@H](O)[C@]12C |  |  |  |  |  |  |  |  |  |  |  |  | inactive | 
C[C@@H](CCC(N)=O)[C@H]1CC[C@H]2[C@@H]3CC[C@@H]4C[C@H](O)CC[C@]4(C)[C@H]3CC[C@]12C |  |  |  |  |  |  |  |  |  |  |  |  | inactive | 
Cc1ccc(N=C=S)cc1 |  | 325 |  | inactive | 8.8 |  | > 50 |  | 37.1 |  | inactive |  |  | 
C[C@@H](CCCN=C=S)[C@H]1CC[C@H]2[C@@H]3CC[C@@H]4C[C@H](O)CC[C@]4(C)[C@H]3CC[C@]12C | 4.1 | 4.5 | 5.4 | inactive | 0.5 | 0.8 | > 50 | 1.1 | 9.7 | >90 |  |  |  | 
S=C=NCc1ccccc1 [BENZYL ISOTHIOCYANATE] |  |  |  | inactive |  |  | > 50 |  |  |  | inactive |  |  | 
CCc1ccccc1N=C=S |  |  |  | inactive |  |  | > 50 |  |  |  | inactive |  |  | 
CC(C)c1ccc2c(c1)CC[C@H]1[C@](C)(CN=C=S)CCC[C@]21C | 1.1 | 10 | 4.2 | inactive | 1.8 | 2.4 | > 50 | 9.4 | 5.7 | >90 |  |  |  | 
C[C@@H](CCCN=C=S)[C@H]1CC[C@H]2[C@@H]3[C@H](O)C[C@@H]4C[C@H](O)CC[C@]4(C)[C@H]3C[C@H](O)[C@]12C | 5.2 | 3.9 | 0.5 | inactive | 2.9 | 7.8 | > 50 | 0.7 | 1.3 | >90 |  |  |  | 
C[C@@H](CCC(N)=O)[C@H]1CC[C@H]2[C@@H]3[C@H](O)C[C@@H]4C[C@H](O)CC[C@]4(C)[C@H]3C[C@H](O)[C@]12C |  |  |  |  |  |  |  |  |  |  |  |  | inactive | 
COc1ccc2c(c1OC)CO[C@@H]2[C@H]1c2c(cc3c(c2OC)OCO3)CCN1C(CN)c1ccccc1 (some centres not stated) | 2 | 12.1 |  |  | 8.8 |  | > 50 | 6 | 1.4 |  |  |  |  | 
COC(=O)[C@H](Cc1c[nH]c2ccccc12)N=C=S | 10.2 | 78.1 | 7.1 | inactive | 3.5 | 10.9 | > 50 | 7.7 | 22.5 | >90 |  |  |  | 14.4
COc1ccc2c(c1OC)CO[C@@H]2[C@H]1c2c(cc3c(c2OC)OCO3)CCN1[C@@H](CN)c1cccnc1 |  | 14.4 |  |  | 3.7 |  | > 50 |  | 3.9 |  |  |  |  | 
COC(=O)[C@H](Cc1ccccc1)N=C=S |  | 13.9 | 1 | inactive |  | 14.4 | > 50 |  |  | >90 |  |  |  | 
COc1ccc2c(c1OC)CO[C@@H]2[C@H]1c2c(cc3c(c2OC)OCO3)CCN1C(CN)c1ccc(C)cc1 (some centres not stated) | 1.8 | 23.3 |  |  | 24.4 |  | > 50 | 12.8 | 1 |  |  |  |  | 
C[C@@H](CCCN=C=S)[C@H]1CC[C@H]2[C@@H]3[C@@H](O)C[C@@H]4C[C@H](O)CC[C@]4(C)[C@H]3CC[C@]12C |  | 4.3 |  | inactive | 2.7 |  | > 50 |  | 1.6 | >90 |  |  |  | 
COc1ccc2c(c1OC)CO[C@@H]2[C@H]1c2c(cc3c(c2OC)OCO3)CCN1C(CN=C=S)c1ccccc1 (some centres not stated) | 3.7 | 18.7 | 1 | inactive | 8.2 | 18.4 | > 50 | 5.07 | 2.3 | >90 |  |  |  | 
Fc1ccc(N=C=S)cc1 |  | 287 |  | inactive | 6.2 |  | > 50 |  | 46.6 |  | inactive |  |  | 
Nc1nc(N)nc(Nc2ccc([As]3SCC(CO)S3)cc2)n1 (configuration not stated) [MELARSOPROL] |  | 24.2 |  |  | 3230 |  |  |  |  |  |  |  |  | 
